Four molecules from US10238680B2, “D-amino acid phosphoramidate pronucleotides of halogeno pyrimidine compounds for liver disease” (priority 2013, dated 2019) can be followed below.

In assay [1] the target is T1, wild-type HCV genotype 1b NS5B polymerase (Hepatitis C virus genotype 1b, UniProt Q9WMX2).
T1 construct: approximately 65 kDa HCV genotype 1b NS5B protein were used to generate recombinant HCV polymerases (with a deletion of the 21 carboxy terminal amino acids); made in house
The assay can be described thus: HCV polymerase enzyme assay, wild-type. In kind it is biochemical. From the text: Test compounds in the form of nucleoside triphosphates were examined for inhibitory activity against purified HCV polymerase in a standard assay. Bacterial expression constructs encoding the approximately 65 kDa HCV genotype 1b NS5B protein were used to generate recombinant HCV polymerases (with a deletion of the 21 carboxy terminal amino acids). The wild-type genotype 1b protein was expressed and purified for use in the enzymatic activity assay.
The enzymatic activity assay measured the inhibitory effect of increasing concentrations of test compound on the incorporation of α-[^33P]-labeled nucleotide into trichloroacetic acid-precipitable material. Recombinant polymerase and synthetic RNA template were combined in reaction buffer containing three unlabeled ribonucleoside triphosphates, one α-[^33P]-labeled ribonucleosidee triphosphate and eight concentrations of test compound in three-fold dilutions. Reactions were incubated for two hours at 30° C.
Reactions were terminated by the addition of ice-cold trichloroacetic acid and sodium pyrophosphate to promote precipitation of newly-synthesized ribonucleic acid. Precipitable material from the reactions was collected by filtration onto 96-well filter plates, washed extensively with water, and quantified by liquid scintillation.
The inhibitory activity of test compounds was determined by fitting results to dose-response curves using XLfit software.

For assay [2], the target named is T2, HCV polymerase S282T (Hepatitis C virus genotype 1b, UniProt Q9WMX2, S2701T).
T2 construct: approximately 65 kDa HCV genotype 1b NS5B protein were used to generate recombinant HCV polymerases (with a deletion of the 21 carboxy terminal amino acids); made in house
Put plainly: HCV polymerase enzyme assay, S282T. In kind it is biochemical.

Structures are written as SMILES. Where only a bound is given, the exact number is not on record here.

As usually defined, the IC50 is the concentration that inhibits the measured activity by half. The low end stands for inhibition by little substance, the high end for a need for much substance. Take `C[C@@]1(Cl)[C@H](O)[C@@H](COP(=O)(O)OP(=O)(O)OP(=O)(O)O)O[C@H]1n1cc(F)c(=O)[nH]c1=O` [Compound 301]: in assay [1], the IC50 is 0.25 to 1 µM.

Turning to `C[C@@]1(F)[C@H](O)[C@@H](COP(=O)(O)OP(=O)(O)OP(=O)(O)O)O[C@H]1n1cc(F)c(=O)[nH]c1=O` [Compound 304], the IC50 is 1 to 10 µM in assay [2] and under 0.25 µM in assay [1]. `C[C@@]1(O)[C@H](O)[C@@H](COP(=O)(O)OP(=O)(O)OP(=O)(O)O)O[C@H]1n1cc(F)c(N)nc1=O` [Compound 302] registered an IC50 in assay [1] of under 0.25 µM. Still for that read-out and setting: under `C[C@@]1(Cl)[C@H](O)[C@@H](COP(=O)(O)OP(=O)(O)OP(=O)(O)O)O[C@H]1n1cc(F)c(N)nc1=O` [Compound 303] stands 0.25 to 1 µM.
